Consider one compound from patent publication US20060135587A1, “Method and compounds for promoting healing and reducing inflammation” (priority 2002, published 2006).

The test system of data set [1] is regeneration of liver after partial hepatectomy. The data set is described as follows: Liver regeneration after partial hepatectomy in rats. In kind it is in vivo. The method, then:
Partial hepatectomy was performed using the conventional method (Higgins and Anderson, 1931) by removing the left lateral and central lobes of the liver from 80 male white rats, weighing 180-200 g.
Compound 2, Compound 4, Compound 5 or Compound 6 was administered to the experimental groups intraperitoneally in equimolar doses of 0.1 mM/kg and 0.2 mM/kg. These optimal doses were determined in preliminary experiments. The control group received intraperitoneal injections of saline solution. The compounds were administered on the day after the operation and then one injection was given daily over the course of 7 days, since maximum growth of the liver mass in rats is observed in the first 7 days after partial hepatectomy (Solopaev, 1980).
The effectiveness of the compounds was compared to that of a combination of non-steroid anabolic regeneration stimulators which are used in the treatment of liver pathology, namely Riboxin and potassium orotate at a dose of 0.2 mM/kg each (Rychnev and Frolov, 1984).
For quantitative evaluation of the regeneration process in the liver the coefficient of regeneration completion as determined by the formula below was used: [formula] where
Stimulation of the regeneration of tissue after hepatectomy in response to different medicinal preparations is associated with an increase in the synthesis of nucleic acids, as indicated by the increase in the content of RNA and DNA in the regenerated tissue. Quantitative analysis of DNA and RNA was performed by centrifugation. […] The enzymic component of anti-oxidant protection was also assessed on the basis of the activity of catalase and superoxidedismutase (SOD).
5 ml of […] of HCIO4 solution were added to the sample (100 mg). In order to ensure complete sedimentation of the acid-insoluble fraction, the beakers were put in ice for 15 minutes. Then they were centrifuged for 10 minutes at 5000 revolutions per minute. The sediment was washed twice with 0.2 M HCIO4. After the final centrifugation, the walls of the beaker were carefully dried with gauze and filter paper. The sediment was ground down with a glass pestle, suspended in 1 ml of water and then 1 ml of 0.6 M KON solution was added at room temperature. Hydrolysis was performed over the course of 1 hour at 37° C., then the beakers were put in ice to stop the hydrolysis process. 4 ml of the 0.6 M solution were added to each beaker and the beakers were left in ice for another 15 minutes, then centrifuged for 15 minutes at 5000 revolutions per minute. The supernatant was used to determine the RNA by UV absorption at 260 nm and 290 nm compared to the control sample containing 0.4M of HCIO4). The amount of RNA in μg per 1 ml of the supernatant was calculated using the following formula: [formula] where C=is the RNA concentration (μg/ml)
DNA analysis was carried out on the sediment remaining after the alkaline hydrolysis used to determine RNA. 0.5 M of HCIO4 (5 ml per sample) was poured into the dried beaker containing the sediment. Hydrolysis was performed in a boiling water bath for 20 minutes. The amount of DNA in μg per 1 ml of the hydrolysate was calculated using the following formula: [formula] where C=is the DNA concentration (μg/ml). Catalase Activity
Catalase activity was determined using the permanganate method. The optimal amount of the substrate (3 ml of 1% H2O2) and 1 ml of the enzyme were added to 10 ml of phosphate buffer, pH 7.8. After 10 minutes the reaction was stopped by adding 1.5 ml of H2SO4 (50%). The remaining hydrogen peroxide was filtered with 0.1M of KMnO4 solution. Catalase activity was calculated on the basis that 1 ml of 0.1M of KMnO4 solution corresponds to […] of H2O2.
SOD activity was determined using the dianisidine method, which is based on the fact that under ultraviolet irradiation Riboflavin (Rb) is converted to an excited (ionised) state and therefore becomes able to attack reduced dianisidine (DH2). […]

Data set [2] relates to liver after partial hepatectomy. Put plainly: Morphological study of the liver after partial hepatectomy. In kind it is in vivo, rats. The note with it: rat, in vivo. The method, then: Morphological methods are highly informative in the assessment of repair processes. Histological tests of the liver after partial hepatectomy were performed using generally accepted methods. Microscopic sections were stained with hematoxylin and eosin using Van Gieson's methodology. Liver tests after partial hepatectomy were performed on 8 groups of animals, totalling 37 rats. All animals were examined one week after hepatectomy.

A further data set in a line: in vivo. The note with it: male, mouse, ip.
For data set [3], the system named is acute Con A-induced inflammation. Put plainly: Acute Con A-induced inflammation (paw oedema) in mice. Format: in vivo. Particulars: Table 3, male CBA mice. Here is the method: Saline solution was similarly administered to the control animals. There were 10 mice in each group. After one hour, con A at a dose of 100 mkg/20 g of body weight was administered by sub-plantar injection into the plantar aponeurosis of the left paws of mice of both the experimental and control groups. The same amount of saline splution was injected into the contralateral paws. After one hour, the mice were killed and the experimental and control paws were weighed to assess the reaction index of the inflammation in the ankle-joint (Liubimov et al, 1999).
The anti-inflammatory effect of Compound 2 and Compound 7 was compared in male mice weighing 18-22 g, using the model described in Example 9. The ED50, i.e. the dose reducing paw ooedema by 50% one hour after injection of Concanavalin A, was calculated.

Method for in vivo: (§1) The acute toxicity of 1,3-dialkyl-4,5-bis (N-methylcarbamoyl)imidazolium salts was assessed following intraperitoneal injection into 200 white male mice weighing 18 to 20 g. Dead animals were counted daily after the administration of the test substance.
Method for white male mice: as §1

Turning to `CC[n+]1cn(C)c(C(=O)NC)c1C(=O)NC` [Compound 4, 1-methyl-3-ethyl-4,5-bis(N-methylcarbamoyl)-imidazolium chloride], in data set [1] (0.2 mM/kg), the “Catalase E activity” value was determined as 18.0 ± 2.6 μgM/min/g tissue × 1000, the “DNA content (in mg/g of tissue)” value was 3.72 ± 0.09 mg/g of tissue, the Protein content was 85.5 ± 10.6 Mg/g tissue and the “RNA content (mg/g of tissue)” value is 7.14 ± 0.2 mg/g of tissue. In addition, the SOD activity in data set [1] (0.2 mM/kg) worked out at 90.0 ± 3.3 Units/g tissue. Also, in data set [1] (0.2 mM/kg intraperitoneally, 7 days, hepatectomy alone = 100), the Level of recovery amounted to 128.3. Moreover, in data set [2], the “histological findings in the liver” value is on record as “showed no undesirable effects”. Besides, in the data set with white male mice, the toxicity result is given as “very low toxicity”. The LD50 at 14 days in the data set “in vivo” was found to be 1220 mg/kg. Further, the “Reaction index (%)” value in data set [3] (10 mg/kg intra-peritoneally one hour before Con A) was determined as 14.1 ± 2.0%. Moreover, the “Reaction index (%)” value in data set [3] (50 mg/kg intra-peritoneally one hour before Con A) was determined as 12.4 ± 0.4 %.
